Test results taken from PMC3323469, “Comparative study of ^64Cu/NOTA-[D-Tyr^6,βAla^11,Thi^13,Nle^14]BBN(6-14) monomer and dimers for prostate cancer PET imaging” (EJNMMI Research, 2012).
Square brackets hold non-standard residues; d marks the D form. Peptide text beside a SMILES is read from it. * marks the point of attachment. NOTA = O=C(O)CN1CCN(CC(=O)O)CCN(CC(=O)*)CC1; 2Thi = N[C@@H](Cc1cccs1)C(=O)O; Nle = CCCC[C@H](N)C(=O)O; AEEA = NCCOCCOCC(=O)O; βAla = NCCC(=O)O

What was measured:
[1] = target: T1, GRPR (Mus musculus, UniProt P21729); experiment: Biodistribution in Balb/c mice (in vivo GRPR-targeting efficacy); conditions: mouse, pancreas, intravenous, total radioactivity; 64Cu-labeled peptide, female Balb/c mice, 30 min p.i.
T1 construct: using the pancreas, a GRPR-rich tissue, as a target for specific receptor-mediated accumulation; from tissue; host or cells: Female Balb/c mice, in vivo; organs (pancreas and others) collected 30 min p.i
T1 sequence (P21729 whole entry): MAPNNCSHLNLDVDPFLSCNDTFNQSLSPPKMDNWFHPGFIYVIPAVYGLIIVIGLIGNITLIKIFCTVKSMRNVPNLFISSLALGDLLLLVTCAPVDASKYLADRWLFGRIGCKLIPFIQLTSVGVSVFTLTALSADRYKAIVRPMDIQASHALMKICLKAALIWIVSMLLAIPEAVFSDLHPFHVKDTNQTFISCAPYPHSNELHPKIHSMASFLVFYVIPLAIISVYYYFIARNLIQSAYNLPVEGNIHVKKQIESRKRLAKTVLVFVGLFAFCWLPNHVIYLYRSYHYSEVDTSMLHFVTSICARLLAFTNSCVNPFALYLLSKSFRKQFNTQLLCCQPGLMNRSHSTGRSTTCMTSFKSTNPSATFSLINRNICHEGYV
Protocol: To determine the in vivo GRPR-targeting efficacy of labeled peptides, biodistribution of female Balb/c mice were realized with a minimum of 4 mice for each condition. Briefly, mice were injected with 370 to 740 kBq (10 to 20 μCi; 100 μL) of either ^64Cu/NOTA-monomer, ^64Cu/NOTA-dimer 1 or ^64Cu/NOTA-dimer 2 via the caudal vein. The animals were sacrificed with CO2 at 30 min post-injection [p.i.]. Organs of interest were then collected, weighed and measured in a gamma counter. The results were expressed as percentage of the injected dose per gram of tissue [%ID/g].

[2] = target: T2, GRPR (Homo sapiens, UniProt P30550); experiment: Competitive binding assay with [125I-Tyr4]bombesin on PC3 cells; set-up: host or cells: PC3 cells (whole, adherent cells in 24-well plates); conditions: read-out: Ki (affinity for GRPR)
T2 sequence (P30550 whole entry): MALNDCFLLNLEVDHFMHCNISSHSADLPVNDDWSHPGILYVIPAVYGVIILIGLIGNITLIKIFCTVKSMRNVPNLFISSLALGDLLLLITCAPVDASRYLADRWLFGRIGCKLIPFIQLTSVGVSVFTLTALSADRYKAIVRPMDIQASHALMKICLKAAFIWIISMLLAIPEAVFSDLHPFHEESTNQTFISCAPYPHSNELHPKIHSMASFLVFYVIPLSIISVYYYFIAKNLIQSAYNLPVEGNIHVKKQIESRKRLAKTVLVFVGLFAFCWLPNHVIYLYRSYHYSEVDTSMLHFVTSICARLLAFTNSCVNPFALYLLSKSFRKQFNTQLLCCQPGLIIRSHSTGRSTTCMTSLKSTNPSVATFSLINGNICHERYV
Protocol: Competition assays were performed in 24-well plates using PC3 cells. The cells were cultured until near confluence, and the medium was replaced by 400 μL of reaction medium (RPMI complemented with 2 mg/mL BSA, 4.8 mg/mL HEPES, 1 U/mL penicillin G and 1 μg/mL streptomycin). For the assay, equal volumes of radioactive and non-radioactive ligands were added. […] The plates were incubated for 40 min at 37°C with agitation. After the incubation, the reaction medium was removed, and the cells were washed three times with PBS at room temperature. The cells were harvested and counted in a gamma counter (Cobra II auto-gamma counter, Packard, MN, USA). Experiments were realized three times in triplicate. Data were analyzed with GraphPad Prism 5 Software (GraphPad Software, San Diego, CA, USA) to determine the IC50. Finally, the Ki was determined using Cheng and Pursoff's formula [32].

[3] = target: T2, GRPR; experiment: Competitive binding in human breast cancer T47D cells; conditions: tested in triplicate
Source text: Table 1 Analytical data for NOTA-BBN(6-14) monomer and dimmers | column: Peptide

`CCCC[C@H](NC(=O)[C@H](Cc1cccs1)NC(=O)[C@H](Cc1c[nH]cn1)NC(=O)CCNC(=O)[C@@H](NC(=O)[C@H](C)NC(=O)[C@H](Cc1c[nH]c2ccccc12)NC(=O)[C@H](CCC(N)=O)NC(=O)[C@@H](Cc1ccc(O)cc1)NC(=O)COCCOCCNC(=O)CN1CCN(CC(=O)O)CCN(CC(=O)O)CC1)C(C)C)C(N)=O` [NOTA-monomer, NOTA-PEG-BBN(6-14)] ({NOTA-AEEA}-[dY]QWAV[βAla]H[2Thi][Nle]-NH2) showed a tissue uptake at 0.5 h [1] of 18.4 ± 2.9 %ID/g, a Ki [2] of 2.51 ± 1.54 nM and a Ki [3] of 1.3 nM.
